Experimental findings from PubChem BioAssay (NCI) are described below.

Among the test systems are BT-549 breast; CCRF-CEM leukemia; HOP-62 NSCLC; KM12 colon; MDA-MB-435; NCI-H23 lung; NCI/ADR-RES ovarian; RXF 393 renal; SF-295 CNS; SK-MEL-2 melanoma.
Experiment in all cases: growth of human tumour cells (NCI), 48 h

SMILES strings stand for the structures.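 48-hour exposure; five concentrations; linearly interpolated endpoints. Here, GI50 denotes the concentration required for 50% inhibition of growth. The concentration for full growth arrest is given as TGI.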

As to `CCn1c(-c2c(Cl)cc(O)cc2Cl)cc2c(Cl)cc(O)cc21`, the TGI is 15.5 µM in the assay on BT-549 breast; over 100 µM in the assay on CCRF-CEM leukemia; 31.5 µM in the assay on HOP-62 NSCLC; 61 µM in the assay on KM12 colon; 13 µM with MDA-MB-435; 39 µM in the assay with NCI-H23 lung. Also, the TGI in the assay with NCI/ADR-RES ovarian was over 100 µM; with RXF 393 renal it was 8.03 µM; in the assay on SF-295 CNS, 19.8 µM; with SK-MEL-2 melanoma it was 17.1 µM.
For `C[C@]12CC[C@@H]3c4ccc(O)cc4CC[C@H]3[C@@H]1CC[C@@H]2NS(=O)(=O)c1cccc(Cl)c1`, the GI50 with BT-549 breast is 2.15 µM; in the assay with CCRF-CEM leukemia, 2.94 µM; in the assay on HOP-62 NSCLC, 4.46 µM; with KM12 colon, 1.96 µM; in the assay on MDA-MB-435, 2.63 µM; with NCI-H23 lung, 2.72 µM. The GI50 is 2.39 µM in the assay with NCI/ADR-RES ovarian, 1.91 µM with RXF 393 renal, 3.1 µM in the assay with SF-295 CNS and 2.46 µM with SK-MEL-2 melanoma. The TGI came to 5.25 µM in the assay with BT-549 breast; 14.4 µM in the assay on CCRF-CEM leukemia; 15.3 µM in the assay on HOP-62 NSCLC; 4.24 µM in the assay with KM12 colon; 8.7 µM with MDA-MB-435; 10.8 µM in the assay on NCI-H23 lung. The TGI was found to be 8.57 µM in the assay on NCI/ADR-RES ovarian, 4.9 µM with RXF 393 renal, 10.8 µM with SF-295 CNS and 5.73 µM in the assay on SK-MEL-2 melanoma.
`C=C(C)[C@@H]1CC[C@]2(COCCCNCCCN)CC[C@]3(C)[C@H](CC[C@@H]4[C@@]5(C)CC[C@H](OCCCN)C(C)(C)[C@@H]5CC[C@]43C)[C@@H]12`: the GI50 is 6.86 µM with BT-549 breast; 0.822 µM in the assay on CCRF-CEM leukemia; 0.831 µM with HOP-62 NSCLC; 0.928 µM in the assay with KM12 colon; 0.833 µM in the assay on MDA-MB-435; 0.934 µM with NCI-H23 lung. Moreover, the GI50 with NCI/ADR-RES ovarian was 0.936 µM; in the assay on RXF 393 renal it was 0.825 µM; in the assay on SF-295 CNS it was 0.868 µM; with SK-MEL-2 melanoma, 6.86 µM. Further, the TGI came out at 14.2 µM in the assay with BT-549 breast; 1.97 µM in the assay on CCRF-CEM leukemia; 1.62 µM in the assay with HOP-62 NSCLC; 1.73 µM with KM12 colon; 1.53 µM in the assay on MDA-MB-435; 1.79 µM in the assay with NCI-H23 lung. Further, the TGI is 1.87 µM with NCI/ADR-RES ovarian, 1.61 µM in the assay on RXF 393 renal, 1.59 µM in the assay with SF-295 CNS and 13.8 µM in the assay on SK-MEL-2 melanoma.
`O=C1NCN(c2ccccc2)C12CCN(CCCC(c1ccc(F)cc1)c1ccc(F)cc1)CC2`: the GI50 is 2.53 µM with BT-549 breast; 2.14 µM in the assay with CCRF-CEM leukemia; 1.84 µM in the assay on HOP-62 NSCLC; 2.14 µM with KM12 colon; 1.75 µM in the assay on MDA-MB-435; 3.31 µM in the assay with NCI-H23 lung. Further, the GI50 was 2.85 µM with NCI/ADR-RES ovarian, 1.72 µM with RXF 393 renal, 1.5 µM with SF-295 CNS and 1.56 µM with SK-MEL-2 melanoma. The TGI came to 7.94 µM in the assay with BT-549 breast; 6.09 µM with CCRF-CEM leukemia; 3.52 µM in the assay with HOP-62 NSCLC; 4.38 µM in the assay with KM12 colon; 3.77 µM with MDA-MB-435; 15.2 µM in the assay on NCI-H23 lung. Also, the TGI was 10.2 µM in the assay on NCI/ADR-RES ovarian, 4.37 µM in the assay with RXF 393 renal, 3.1 µM with SF-295 CNS and 2.98 µM in the assay with SK-MEL-2 melanoma.
For the compound `Cc1cc2c(cc1C)[n+](=O)c(C(=O)/C=C/c1ccc3c(c1)OCO3)c(C)n2[O-]`, the TGI in the assay on BT-549 breast was over 100 µM; in the assay with CCRF-CEM leukemia, over 100 µM; in the assay on HOP-62 NSCLC it was 59.1 µM; with KM12 colon, over 100 µM; in the assay on MDA-MB-435, over 100 µM; in the assay with NCI-H23 lung it was over 89.1 µM. Further, the TGI is over 100 µM in the assay on NCI/ADR-RES ovarian, 66.6 µM in the assay with RXF 393 renal, 50 µM in the assay on SF-295 CNS and 88.6 µM in the assay on SK-MEL-2 melanoma.
As for `COc1cccc(-n2ncc3c(N/N=C/c4ccc(C)cc4)ncnc32)c1`, the GI50 was over 25 µM in the assay with BT-549 breast; over 25 µM with CCRF-CEM leukemia; over 25 µM with HOP-62 NSCLC; over 25 µM with KM12 colon; over 22.4 µM in the assay on MDA-MB-435; over 25 µM in the assay on NCI-H23 lung. Moreover, the GI50 with NCI/ADR-RES ovarian, with RXF 393 renal, in the assay on SF-295 CNS and in the assay with SK-MEL-2 melanoma was over 25 µM throughout. Also, the TGI in the assay with BT-549 breast, in the assay with CCRF-CEM leukemia, in the assay on HOP-62 NSCLC, with KM12 colon, in the assay with MDA-MB-435 and in the assay on NCI-H23 lung was over 25 µM each time. Further, the TGI with NCI/ADR-RES ovarian, in the assay with RXF 393 renal, in the assay on SF-295 CNS and in the assay on SK-MEL-2 melanoma was over 25 µM in each case.
For `CC/C=C\C[C@H](O)C/C=C1/C(=O)C=C[C@@H]1C/C=C\CCCC(=O)OC(C)C`, the GI50 with BT-549 breast is 1.25 µM; with CCRF-CEM leukemia, 0.425 µM; with HOP-62 NSCLC, 2.45 µM; in the assay on KM12 colon it was 1.36 µM; with MDA-MB-435, 0.572 µM; in the assay with NCI-H23 lung, 1.73 µM. For the same compound, the GI50 was 3.11 µM in the assay on NCI/ADR-RES ovarian, 1.76 µM in the assay on RXF 393 renal, 2.91 µM with SF-295 CNS and 2.02 µM in the assay with SK-MEL-2 melanoma. For the same compound, the TGI with BT-549 breast was 3.51 µM; in the assay on CCRF-CEM leukemia it was 2.53 µM; in the assay with HOP-62 NSCLC, 6.01 µM; in the assay with KM12 colon it was 3.08 µM; in the assay with MDA-MB-435, 2.7 µM; in the assay with NCI-H23 lung it was 4.37 µM. The TGI in the assay with NCI/ADR-RES ovarian worked out at 17.2 µM; with RXF 393 renal it was 3.27 µM; with SF-295 CNS, 8.34 µM; in the assay with SK-MEL-2 melanoma, 4.77 µM.
